From US10004222B2, “Small molecule ice recrystallization inhibitors and methods of use thereof” (THE UNIVERSITY OF OTTAWA, priority 2012, dated 2018)
Several values for one entry are separate records, joined by “and”; a condition that tells them apart may be missing. Equal values may be shown once.

Legend:
[1] = test system: CD34+ cells (hematopoietic stem cells); experiment: colony forming unit (CFU) assay after cryopreservation of umbilical cord blood; format: cell-based, human; details: 27.5 mM IRI, 10% DMSO; post-thaw, 14 days in Methocult
[2] = test system: CD34+ cells (hematopoietic stem cells); experiment: as above; format: cell-based, human; details: for BFU-E / CFU-G / CFU-GEMM / CFU-GM / CFU-M / Total Number of Colonies: 10% DMSO, post-thaw, 14 days in Methocult; for combined results of the CFU assays vs control: UCB units 26, 27, 28 combined, FIG. 41
Protocol: Aliquots of LC (50,000 CD34^+ cells) are added to 2.0 mL cryovials. For each experiment, four cryovials are prepared (two for post-thaw viability analysis using flow cytometry and two for functionality analysis using the colony forming unit assay). Cryovials are kept on ice until placement in −80° C. freezer. Cryovials are centrifuged at 400 g and 10° C. for 5 minutes to pellet cells. After centrifugation, the time taken until placement in −80° C. freezer should not exceed 10 minutes. Supernatant is removed by aspiration or by decanting, but preferably by aspiration. Plasma (volume depends on desired cryosolution concentration) is added and cells are suspended by pipetting. Pre-made cryosolutions (see Cryosolutions) are added (volume depends on desired cryosolution concentration) and mixed by pipetting. Cryovials are placed in a Mr. Frosty® rate controlled freezing container which is then placed in a −80° C. freezer for 24 hours. By placing the cryovials in the freezing container, their contents undergo a cooling rate of about −1° C. per minute. After 24 hours, the cryovials are transferred to a liquid nitrogen dewar for storage until thawed for analysis.
Cryosolutions are prepared in distilled autoclaved water supplemented with 0.9% saline and 5% dextran for cryopreservation experiments and diluted with different volumes of plasma in cryovials depending on desired concentration of ice recrystallization inhibitor. N-(4-chlorophenyl)-D-gluconamide (4a) and N-(2-fluorophenyl)-D-gluconamide (2a) are prepared at 25 mM and N-(4-methoxyphenyl)-D-gluconamide (3a) and N-(2,6-difluorobenzyl)-D-gluconamide (1b) are prepared at 55 mM. 100, 50, 33 or 20 μL of 25 mM N-(4-chlorophenyl)-D-gluconamide (4a) or N-(2-fluorophenyl)-D-gluconamide (2a) are added to cryovials containing 50,000 CD34^+ cells suspended in 0, 50, 67, or 80 μL of plasma, respectively, for a final IRI concentration of 25, 12.5, 8 or 5 mM, respectively. 100, 50, 33 or 20 μL of 55 mM N-(4-methoxyphenyl)-D-gluconamide (3a) or N-(2,6-difluorobenzyl)-D-gluconamide (1b) are added to cryovials containing 50,000 CD34^+ cells suspended in 0, 50, 67, or 80 μL of plasma, respectively, for a final IRI concentration of […], 18 or 11 mM, respectively.
Cryovials are thawed in a 37° C. water bath and diluted with 900 μL of IMDM (10% FBS, 1% penicillin/streptomycin). Cryovials are placed on ice until washed. Samples are mixed by pipetting and 80 μL is transferred to a 15 mL Falcon tube. 5 mL of Iscove's Modified Dulbecco's Medium (IMDM) supplemented with 10% fetal bovine serum (FBS) is added and this mixture is centrifuged at 1100 rpm for six minutes to yield a cell pellet and a supernatant. The supernatant is removed by aspiration and the cell pellet is resuspended in 1 mL IMDM (2% FBS) to form a suspension. The suspension is mixed by pipetting. 150 μL of this cell suspension is added to 3 mL Methocult™ media and plating is performed in accordance with manufacturer's instruction. The suspension with Methocult™ media is mixed adequately by vortexing for 20 seconds. The contents are allowed to settle and bubbles are allowed to subside before plating (approximately 5-10 minutes). Using a 3 mL syringe and 16 gauge blunt needles, 2.5 mL of the cell suspension in Methocult™ is taken from the bottom. 1 mL of this 2.5 mL is added to two 5 mL cell culture dishes. The dishes are swirled to ensure cells in Methocult™ medium coat the entire bottom of the dish. A third 5 mL dish is prepared to contain distilled autoclaved water without a lid. These three 5 mL dishes are placed in a 100 mL plate; two 5 mL dishes contain 1 mL of cell suspension in Methocult™ medium with the lid on and one containing distilled autoclaved water with the lid off. The lid is placed on the 100 mL plate and stored in a 37° C. incubator (5% CO2) for two weeks.

[3] = test system: Tf1-α cells; experiment: cryopreservation of Tf1-α cells, viability/apoptosis by flow cytometry (7-AAD, Annexin V); format: cell-based; details: 55 mM aryl-aldonamide, post-thaw
Protocol: Tf1-α cells were cultured to a final concentration of 2-3×10^6 cells/mL. Three million cells were transferred into cryovials and media were removed by aspiration after centrifugation at 1000 rpm for five minutes. 100 μL of RPMI media (10% FBS) supplemented with the cryopreservative of interest was added to the cryovial and vortexed. The cryovials were cooled at a rate of −1° C./min for 24 hours to −80° C. before being transferred to a liquid nitrogen dewar for storage until analysis.
Cryovials were thawed under fast thaw conditions (submerged in 37° C. water bath). The cells were then diluted to a concentration of 3×10^6 cells/mL with 1× Annexin V Binding Buffer and a cell count was obtained by hemacytometer (to obtain cell recovery). A 400 μL aliquot was transferred to a flow cytommetry tube. 10 μL of each Annexin V FITC (for apoptosis) and 7-AAD (for viability) dyes were added, the tube was vortexed and allowed to incubate in the dark for 15 minutes. The solution was diluted to 1 mL with 1× Annexin V Binding Buffer, vortexed and analyzed by flow cytommetry. […] With 2% DMSO, cell viability reached about 45%, and with 10% DMSO, cell viability reached around 78%.

`O=C(NCc1c(F)cccc1F)[C@H](O)[C@@H](O)[C@H](O)[C@H](O)CO` [(1b), N-(2,6-difluorobenzyl)-D-gluconamide] showed a BFU-E [1] of 28.5, a CFU-M [1] of 2.0 and a BFU-E ([2]; 11 mM IRI) of 25.3. For the same compound, the CFU-G ([2]; 11 mM IRI) was 4.3, the CFU-GEMM ([2]; 11 mM IRI) was 2.4 and the CFU-GM ([2]; 11 mM IRI) was 9.8. The CFU-M ([2]; 11 mM IRI) was 1.5, the “Total Number of Colonies” value ([2]; 11 mM IRI) was 41.9 and the “Tot. No. Colonies” value ([2]; 11 mM IRI, UCB Unit 27) was 31 and 30. It also gave a BFU-E ([2]; 18 mM IRI) of 24.0, a CFU-G ([2]; 18 mM IRI) of 9.5 and a CFU-GEMM ([2]; 18 mM IRI) of 7.5. The CFU-GM ([2]; 18 mM IRI) was 11.0, the CFU-M ([2]; 18 mM IRI) was 4.5 and the “Total Number of Colonies” value ([2]; 18 mM IRI) was 56.5. For the same compound, the “fold increase in functionality relative to the control” value ([2]; 18 mM vs DMSO only) was 1.8 fold, the CFU-G ([2]; 27.5 mM IRI) was 3.0 and the CFU-GEMM ([2]; 27.5 mM IRI) was 3.5. For the same compound, the CFU-GM ([2]; 27.5 mM IRI) was 11.0, the “Total Number of Colonies” value ([2]; 27.5 mM IRI) was 48.0 and the BFU-E ([2]; 55 mM IRI) was 29.5. For the same compound, the CFU-G ([2]; 55 mM IRI) was 8.5, the CFU-GEMM ([2]; 55 mM IRI) was 1.5 and the CFU-GM ([2]; 55 mM IRI) was 10.5. For the same compound, the CFU-M ([2]; 55 mM IRI) was 0.5, the “Total Number of Colonies” value ([2]; 55 mM IRI) was 50.5 and the “combined results of the CFU assays vs control” value (“combined results … vs control” below) [2] was “performed particularly well”.
In the case of `O=C(Nc1ccccc1F)[C@H](O)[C@@H](O)[C@H](O)[C@H](O)CO` [(2a), N-(2-fluorophenyl)-D-gluconamide], the “Apoptosis (%)” value ([3]; 0% DMSO) is reported as 0%, the “Cell Viability (%)” value ([3]; 0% DMSO) is reported as 1.27% and the “Apoptosis (%)” value ([3]; 2% DMSO) is reported as 1.5%. For the same compound, the “Cell Viability (%)” value ([3]; 2% DMSO) was 81.28%, the “Apoptosis (%)” value ([3]; 10% DMSO) was 3.37% and the “Cell Viability (%)” value ([3]; 10% DMSO) was 92.83%. The “Tot. No. Colonies” value ([2]; 5 mM IRI, UCB Unit 26) was 48 and 66 and 42, the “Tot. No. Colonies” value ([2]; 5 mM IRI, UCB Unit 27) was 38 and 34 and the “combined results … vs control” value [2] was “performed particularly well”.
With `COc1ccc(NC(=O)[C@H](O)[C@@H](O)[C@H](O)[C@H](O)CO)cc1` [(3a), N-(4-methoxyphenyl)-D-gluconamide] the BFU-E [1] was 35.0, the CFU-M [1] was 3.5 and the “Apoptosis (%)” value ([3]; 0% DMSO) was 0%. For the same compound, the “Cell Viability (%)” value ([3]; 0% DMSO) was 0.16%, the “Apoptosis (%)” value ([3]; 2% DMSO) was 1.38% and the “Cell Viability (%)” value ([3]; 2% DMSO) was 74.33%. The “Apoptosis (%)” value ([3]; 10% DMSO) was 2.73%, the “Cell Viability (%)” value ([3]; 10% DMSO) was 95.33% and the BFU-E ([2]; 11 mM IRI) was 20.5. For the same compound, the CFU-G ([2]; 11 mM IRI) was 5.5, the CFU-GEMM ([2]; 11 mM IRI) was 5.9 and the CFU-GM ([2]; 11 mM IRI) was 7.4. For the same compound, the CFU-M ([2]; 11 mM IRI) was 0.9, the “Total Number of Colonies” value ([2]; 11 mM IRI) was 40.4 and the “Tot. No. Colonies” value ([2]; 11 mM IRI, UCB Unit 27) was 33 and 37. The BFU-E ([2]; 18 mM IRI) was 18.0, the CFU-G ([2]; 18 mM IRI) was 8.8 and the CFU-GEMM ([2]; 18 mM IRI) was 2.8. The CFU-GM ([2]; 18 mM IRI) was 11.3, the CFU-M ([2]; 18 mM IRI) was 0.3 and the “Total Number of Colonies” value ([2]; 18 mM IRI) was 36.0. For the same compound, the CFU-G ([2]; 27.5 mM IRI) was 6.5, the CFU-GEMM ([2]; 27.5 mM IRI) was 15.5 and the CFU-GM ([2]; 27.5 mM IRI) was 14.0. The “Total Number of Colonies” value ([2]; 27.5 mM IRI) was 74.5, the “fold increase in functionality relative to the control” value ([2]; 27.5 mM vs DMSO only) was 2.4 fold and the BFU-E ([2]; 55 mM IRI) was 24.5. It also gave a CFU-G ([2]; 55 mM IRI) of 9.5, a CFU-GEMM ([2]; 55 mM IRI) of 6.5 and a CFU-GM ([2]; 55 mM IRI) of 15.0. For the same compound, the CFU-M ([2]; 55 mM IRI) was 1.0, the “Total Number of Colonies” value ([2]; 55 mM IRI) was 56.5 and the “combined results … vs control” value [2] was “performed particularly well”.
Work on `O=C(Nc1ccc(Cl)cc1)[C@H](O)[C@@H](O)[C@H](O)[C@H](O)CO` [(4a), N-(4-chlorophenyl)-D-gluconamide] yielded a BFU-E ([2]; 5 mM IRI) of 22.2, a CFU-G ([2]; 5 mM IRI) of 4.2 and a CFU-GEMM ([2]; 5 mM IRI) of 6.8. The CFU-GM ([2]; 5 mM IRI) was 11.5, the CFU-M ([2]; 5 mM IRI) was 1.3 and the “Total Number of Colonies” value ([2]; 5 mM IRI) was 46.0. For the same compound, the “Tot. No. Colonies” value ([2]; 5 mM IRI, UCB Unit 27) was 47 and 38, the BFU-E ([2]; 8 mM IRI) was 17.0 and the CFU-G ([2]; 8 mM IRI) was 8.0. The CFU-GEMM ([2]; 8 mM IRI) was 4.0, the CFU-GM ([2]; 8 mM IRI) was 10.5 and the CFU-M ([2]; 8 mM IRI) was 0.5. The “Total Number of Colonies” value ([2]; 8 mM IRI) was 40.0, the BFU-E ([2]; 12.5 mM IRI) was 44.0 and the CFU-G ([2]; 12.5 mM IRI) was 1.5. For the same compound, the CFU-GEMM ([2]; 12.5 mM IRI) was 0.0, the CFU-GM ([2]; 12.5 mM IRI) was 8.5 and the CFU-M ([2]; 12.5 mM IRI) was 3.0. For the same compound, the “Total Number of Colonies” value ([2]; 12.5 mM IRI) was 61.0, the BFU-E ([2]; 25 mM IRI) was 37.0 and the CFU-G ([2]; 25 mM IRI) was 11.5. The CFU-GEMM ([2]; 25 mM IRI) was 2.0, the CFU-GM ([2]; 25 mM IRI) was 10.5 and the CFU-M ([2]; 25 mM IRI) was 2.0. For the same compound, the “Total Number of Colonies” value ([2]; 25 mM IRI) was 63.0, the “fold increase in functionality relative to the control” value ([2]; 25 mM vs DMSO only) was 2.0 fold and the “combined results … vs control” value [2] was “performed particularly well”.
